This passage reports IC50 results from patent publication US20230339952A1, “MACROCYCLIC HETEROCYCLES AND USES THEREOF” (Kumquat Biosciences Inc., priority 2022, published 2023).

One assay addresses SOS1 (Homo sapiens (Human), UniProt Q07889). As to the kind of experiment: Ras-SOS interaction assay (HTRF), K-Ras G13D utilized. It counts as binding. As to conditions: K-Ras G13D. For orientation: Time-resolved FRET reads energy transfer from a long-lived donor to a nearby acceptor.
Assay [1] relates to NCI-H1975 (ATCC CRL-5908) cell line comprising an EGFR T790M L858R double mutation. As to the kind of experiment: EGFR-SOS cellular inhibition assay (CellTiter-Glo cell proliferation). The following applies: Homo sapiens. It counts as cell-based. (ATP-based viability assays read luminescence as a measure of living cells.)
Experimental: A CellTiter-Glo (CTG) luminescent based assay (Promega) is used to assess growth of the cells, as a measurement of the ability of the compounds herein to inhibit EGFR signaling in the cells. […] The day after plating, cells are treated with a dilution series (e.g., a 9 point 3-fold dilution series) of the compounds herein (e.g., approximately 125 μL final volume per well).
Assay [2] deals with MIA PaCa-2 cells (K-Ras G12C). As to the kind of experiment: Ras-SOS cellular growth inhibition assay (CellTiter-Glo). The following applies: Homo sapiens, MIA PaCa-2, 120 h, read-out: IC50 in inhibiting MIA PaCa-2 cell growth.
Experimental: A CellTiter-Glo (CTG) luminescent based assay (Promega) is used to assess growth of the cells, as a measurement of the ability of the compounds herein to inhibit Ras signaling in the cells. […] The day after plating, cells are treated with a dilution series (e.g., a 9 point 3-fold dilution series) of the compounds herein (e.g., approximately 125 μL final volume per well). Cell viability can be monitored (e.g., approximately 5 days later) according to the manufacturer's recommended instructions, where the CellTiter-Glo reagent is added (e.g., approximately 65 μL), vigorously mixed, covered, and placed on a plate shaker (e.g., approximately for 20 min) to ensure sufficient cell lysis prior to assessment of luminescent signal. The IC50 values are determined using the four-parameter fit. The resulting IC50 value is a measurement of the ability of the compounds herein to reduce cell growth of Ras-driven cells as representative tumor cells.
[3] abbreviates: 120 h, NCI-H1975 cell proliferation, approximately 5 days, read-out: H1975 IC50.
[4] abbreviates: NCI-H1975, EGFR T790M L858R double mutation, read-out: IC50 in inhibiting growth of NCI-H1975 cell line.
[5] abbreviates: read-out: IC50 value against SOS1.

Where two headings read alike, the source gives them in different places. Some results are limits rather than exact numbers.

Sequence of SOS1 (Q07889 564-1049): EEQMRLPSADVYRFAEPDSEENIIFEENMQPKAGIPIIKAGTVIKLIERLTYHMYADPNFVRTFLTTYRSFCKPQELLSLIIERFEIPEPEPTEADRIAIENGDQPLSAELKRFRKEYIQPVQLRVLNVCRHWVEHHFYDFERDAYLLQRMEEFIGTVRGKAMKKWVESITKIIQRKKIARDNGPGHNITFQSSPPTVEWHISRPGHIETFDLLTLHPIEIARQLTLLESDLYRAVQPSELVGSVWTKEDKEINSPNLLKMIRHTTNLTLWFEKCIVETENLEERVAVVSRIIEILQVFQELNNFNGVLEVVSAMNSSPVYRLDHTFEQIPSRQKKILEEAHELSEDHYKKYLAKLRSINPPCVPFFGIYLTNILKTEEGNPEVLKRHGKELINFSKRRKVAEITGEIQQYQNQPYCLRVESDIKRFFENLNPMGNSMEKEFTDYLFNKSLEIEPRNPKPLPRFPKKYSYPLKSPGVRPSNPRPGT

A word on the IC50: it is the concentration that inhibits the measured activity by half. Regarding `C[C@H]1Nc2nc(=O)n(c3c2cc(C2(C#N)CC2)c(=O)n3C)CC/C=C\CN2CCC(CC2)C(F)(F)c2cccc1c2` [Compound 6, 1-((6^3E,4R,9Z)-2,2-difluoro-6^8,4-dimethyl-6^2,6^7-dioxo-6^1,6^2,6^7,6^8-tetrahydro-5-aza-6(4,1)-pyrido[2,3-d]pyrimidina-1(4,1)-piperidina-3(1,3)-benzenacycloundecaphan-9-en-6^6-yl)cyclopropane-1-carbonitrile], the half-maximal inhibitory concentration (IC50) was < 100 nM at SOS1 (read-out: SOS1 IC50), < 1000 nM in assay [1] (setting [3]), < 500 nM in assay [1] (setting [4]) and < 1000 nM in assay [2].
Consider `Cc1nc2c3cc(C4(C#N)CC4)c(=O)n(c3n1)CCCCCCCCC(C)(O)C(F)(F)c1cccc(c1)[C@@H](C)N2` (stereo partly drawn) [Compound 9, 1-((3R)-5,5-difluoro-6-hydroxy-1^2,3,6-trimethyl-1^7-oxo-1^7,1^8-dihydro-2-aza-1(4,8)-pyrido[2,3-d]pyrimidina-4(1,3)-benzenacyclotetradecaphane-1^6-yl)cyclopropane-1-carbonitrile], for which the IC50 at SOS1 (read-out: SOS1 IC50) was 100 to 5000 nM; in assay [1] (setting [3]), < 1000 nM; in assay [2] it was < 1000 nM.
On to `C[C@H]1Nc2ncnc3c2cc(C2(C#N)CC2)c(=O)n3CCCCCCCCN2CCC(CC2)C(F)(F)c2cccc1c2` [Compound 54, 1-((4R)-2,2-difluoro-4-methyl-6^7-oxo-6^7,6^8-dihydro-5-aza-6(4,8)-pyrido[2,3-d]pyrimidina-1(4,1)-piperidina-3(1,3)-benzenacyclotetradecaphane-6^6-yl)cyclopropane-1-carbonitrile], for which the concentration for half-maximal inhibition (IC50) in assay [1] (setting [3]) is < 1000 nM; in assay [1] (setting [4]), < 500 nM; in assay [2], < 1000 nM.
Take `C[C@H]1Nc2ncnc3c2cc(C2(C#N)CC2)c(=O)n3CCCCCCCN2CCC(CC2)C(F)(F)c2cccc1c2` [Compound 61, 1-((4R)-2,2-difluoro-4-methyl-6^7-oxo-6^7,6^8-dihydro-5-aza-6(4,8)-pyrido[2,3-d]pyrimidina-1(4,1)-piperidina-3(1,3)-benzenacyclotridecaphane-6^6-yl)cyclopropane-1-carbonitrile]: the IC50 at SOS1 (setting [5]) is < 50 nM; on SOS1 (read-out: SOS1 IC50) it was < 100 nM; in assay [1] (setting [3]) it was < 1000 nM; in assay [1] (setting [4]), < 500 nM; in assay [2] it was < 1000 nM.
On to `C[C@H]1Nc2ncnc3c2cc(N2CCN(C4CCN(C)CC4)CC2)c(=O)n3CCCCCCCN2CCC(CC2)C(F)(F)c2cccc1c2F` [Compound 178, (4R)-3^2,2,2-trifluoro-4-methyl-6^6-(4-(1-methylpiperidin-4-yl)piperazin-1-yl)-6^7,6^8-dihydro-5-aza-6(4,8)-pyrido[2,3-d]pyrimidina-1(4,1)-piperidina-3(1,3)-benzenacyclotridecaphan-6^7-one], for which the IC50 on SOS1 (read-out: SOS1 IC50) is < 100 nM; in assay [1] (setting [3]), < 1000 nM.
The matching figures for `C[C@H]1Nc2ncnc3c2cc(N2CCN(C4COC4)CC2)c(=O)n3CCCCCCCN2CCC(CC2)C(F)(F)c2cccc1c2F` [Compound 179, (4R)-3^2,2,2-trifluoro-4-methyl-6^6-(4-(oxetan-3-yl)piperazin-1-yl)-6^7,6^8-dihydro-5-aza-6(4,8)-pyrido[2,3-d]pyrimidina-1(4,1)-piperidina-3(1,3)-benzenacyclo-tridecaphan-6^7-one]: < 100 nM and < 1000 nM.
The matching figures for `C[C@H]1Nc2ncnc3c2cc(N2CCN(S(C)(=O)=O)CC2)c(=O)n3CCCCCCCN2CCC(CC2)C(F)(F)c2cccc1c2F` [Compound 180, (4R)-3^2,2,2-trifluoro-4-methyl-6^6-(4-(methylsulfonyl)piperazin-1-yl)-6^7,6^8-dihydro-5-aza-6(4,8)-pyrido[2,3-d]pyrimidina-1(4,1)-piperidina-3(1,3)-benzenacyclotride-caphan-6^7-one]: < 100 nM and < 1000 nM.
The matching figures for `C[C@H]1Nc2ncnc3c2cc(N2CCS(=O)(=O)CC2)c(=O)n3CCCCCN2CCC(CC2)CCC(F)(F)c2cccc1c2` [Compound 181, (3R)-1^6-(1,1-dioxidothiomorpholino)-5,5-difluoro-3-methyl-1^7,1^8-dihydro-2-aza-1(4,8)-pyrido[2,3-d]pyrimidina-8(4,1)-piperidina-4(1,3)-benzenacyclotridecaphan-1^7-one]: < 100 nM and < 1000 nM.
Consider `C[C@H]1Nc2ncnc3c2cc(N2CCS(=O)(=O)CC2)c(=O)n3CCCOCCCCN2CCC(CC2)C(F)(F)c2cccc1c2` [Compound 186, (4R)-6^6-(1,1-dioxidothiomorpholino)-2,2-difluoro-4-methyl-6^7,6^8-dihydro-10-oxa-5-aza-6(4,8)-pyrido[2,3-d]pyrimidina-1(4,1)-piperidina-3(1,3)-benzenacyclotetradecaphan-6^7-one], for which the concentration for half-maximal inhibition (IC50) is < 100 nM at SOS1 (read-out: SOS1 IC50) and < 1000 nM in assay [1] (setting [3]).
The matching figures for `C[C@H]1Nc2ncnc3c2cc(C2(C#N)CCS(=O)(=O)CC2)c(=O)n3CCCOCCCN2CCC(CC2)CC(F)(F)c2cccc1c2` [Compound 189, 4-((3R)-5,5-difluoro-3-methyl-1^7-oxo-1^7,1^8-dihydro-11-oxa-2-aza-1(4,8)-pyrido[2,3-d]pyrimidina-7(4,1)-piperidina-4(1,3)-benzenacyclotetradecaphane-1^6-yl)tetrahydro-2H-thiopyran-4-carbonitrile 1,1-dioxide]: < 100 nM and < 1000 nM.
The corresponding values for `CC(C)N1CCN(c2cc3c4ncnc3n(c2=O)CCCOCCCCN2CCC(CC2)C(F)(F)c2cccc(c2)[C@@H](C)N4)CC1` [Compound 190, (4R)-2,2-difluoro-6^6-(4-isopropylpiperazin-1-yl)-4-methyl-6^7,6^8-dihydro-10-oxa-5-aza-6(4,8)-pyrido[2,3-d]pyrimidina-1(4,1)-piperidina-3(1,3)-benzenacyclotetradecaphan-6^7-one] are < 100 nM and < 1000 nM.
Turning to `C[C@H]1Nc2ncnc3c2cc(C2CCS(=O)(=O)CC2)c(=O)n3CCCOCCCN2CCC(CC2)CC(F)(F)c2cccc1c2F` [Compound 191, (3R)-1^6-(1,1-dioxidotetrahydro-2H-thiopyran-4-yl)-4^2,5,5-trifluoro-3-methyl-1^7,1^8-dihydro-11-oxa-2-aza-1(4,8)-pyrido[2,3-d]pyrimidina-7(4,1)-piperidina-4(1,3)-benzenacyclotetradecaphan-1^7-one], the IC50 is < 100 nM at SOS1 (read-out: SOS1 IC50) and < 1000 nM in assay [1] (setting [3]).
The corresponding values for `C[C@H]1Nc2ncnc3c2cc(C2CCS(=O)(=O)CC2)c(=O)n3CCCOCCCCN2CCC(CC2)C(F)(F)c2cccc1c2F` [Compound 203, (4R)-6^6-(1,1-dioxidotetrahydro-2H-thiopyran-4-yl)-3^2,2,2-trifluoro-4-methyl-6^7,6^8-dihydro-10-oxa-5-aza-6(4,8)-pyrido[2,3-d]pyrimidina-1(4,1)-piperidina-3(1,3)-benzenacyclotetradecaphan-6^7-one] are < 100 nM and < 1000 nM.
Regarding `C[C@H]1Nc2ncnc3c2cc(N2CCS(=O)(=O)CC2)c(=O)n3CCCOCCCCN2CC(C2)CC(F)(F)c2cccc1c2` [Compound 209, (3R)-1^6-(1,1-dioxidothiomorpholino)-5,5-difluoro-3-methyl-1^7,1^8-dihydro-12-oxa-2-aza-1(4,8)-pyrido[2,3-d]pyrimidina-7(3,1)-azetidina-4(1,3)-benzenacyclopentade-caphan-1^7-one], the IC50 was < 50 nM on SOS1 (setting [5]), < 100 nM at SOS1 (read-out: SOS1 IC50), < 1000 nM in assay [1] (setting [3]) and < 500 nM in assay [1] (setting [4]).
The corresponding values for `C[C@H]1Nc2ncnc3c2cc(C2(C#N)CCS(=O)(=O)CC2)c(=O)n3CCCCCCCN2CC(C2)CC(F)(F)c2cccc1c2` [Compound 210, 4-((3R)-5,5-difluoro-3-methyl-1^7-oxo-1^7,1^8-dihydro-2-aza-1(4,8)-pyrido[2,3-d]pyrimidina-7(3,1)-azetidina-4(1,3)-benzenacyclotetradecaphane-1^6-yl)tetrahydro-2H-thiopyran-4-carbonitrile 1,1-dioxide] are < 50 nM, < 100 nM, < 1000 nM and < 500 nM.
The corresponding values for `C[C@H]1Nc2ncnc3c2cc(N2CCS(=O)(=O)CC2)c(=O)n3CCCCCCCN2CC(C2)CC(F)(F)c2cccc1c2` [Compound 211, (3R)-1^6-(1,1-dioxidothiomorpholino)-5,5-difluoro-3-methyl-1^7,1^8-dihydro-2-aza-1(4,8)-pyrido[2,3-d]pyrimidina-7(3,1)-azetidina-4(1,3)-benzenacyclotetradecaphan-1^7-one] are < 50 nM, < 100 nM, < 1000 nM and < 500 nM.
The matching figures for `C[C@H]1Nc2ncnc3c2cc(C2CCS(=O)(=O)CC2)c(=O)n3CCCCCCCN2CC(C2)CC(F)(F)c2cccc1c2F` [Compound 212, (3R)-1^6-(1,1-dioxidotetrahydro-2H-thiopyran-4-yl)-4^2,5,5-trifluoro-3-methyl-1^7,1^8-dihydro-2-aza-1(4,8)-pyrido[2,3-d]pyrimidina-7(3,1)-azetidina-4(1,3)-benzenacyclotetradecaphan-1^7-one]: < 50 nM, < 100 nM, < 1000 nM and < 500 nM.
Take `C[C@H]1Nc2ncnc3c2cc(C2(C#N)CCS(=O)(=O)CC2)c(=O)n3CCCCCCN2CC(CCC(F)(F)c3cccc1c3)C2` [Compound 213, 4-((3R)-5,5-difluoro-3-methyl-1^7-oxo-1^7,1^8-dihydro-2-aza-1(4,8)-pyrido[2,3-d]pyrimidina-8(3,1)-azetidina-4(1,3)-benzenacyclotetradecaphane-1^6-yl)tetrahydro-2H-thiopyran-4-carbonitrile 1,1-dioxide]: the IC50 on SOS1 (setting [5]) was < 50 nM; on SOS1 (read-out: SOS1 IC50) it was < 100 nM; in assay [1] (setting [3]), < 1000 nM; in assay [1] (setting [4]), < 500 nM.
